Laboratory results taken from article PMC9688344, “[^225Ac]Ac-SibuDAB for Targeted Alpha Therapy of Prostate Cancer: Preclinical Evaluation and Comparison with [^225Ac]Ac-PSMA-617” (Cancers, 2022).
Like-named read-outs stand apart in the source and are kept apart here.

Experiments:
PSMA = biological target: T1, PSMA (Homo sapiens, UniProt Q04609); settings: ref Borgna & Deberle et al., Mol Pharm 2022; cited from earlier work
T1 construct: expressed in transfected cells; host or cells: PC-3 PIP prostate cancer cells (transduced to express PSMA), provided by Prof; Dr. Martin Pomper, Johns Hopkins University

[1] = tested on: PSMA-positive PC-3 PIP cells; settings: 4 h incubation; ref Borgna & Deberle et al., Mol Pharm 2022; cited from earlier work
[2] = tested on: PSMA-positive PC-3 PIP tumor xenografts; experiment: Therapy study in PC-3 PIP tumor-bearing mice; type: in vivo, BALB/c nude mice; settings: 10 MBq
Experimental: Five days after subcutaneous inoculation of four groups of mice with either PC-3 PIP or PC-3 flu tumor cells on the right shoulder (4 × 10^6 cells in 100 μL HBSS), the mice were intravenously injected with either vehicle only (saline with 0.05% BSA, n = 6 and n = 4, respectively) or with 30 kBq [^225Ac]Ac-SibuDAB (1 nmol per mouse; n = 4 per group) diluted in vehicle (Table 1).
After tumor cell inoculation, mice bearing PC-3 PIP tumor xenografts were intravenously injected with vehicle only (n = 6) or with [^225Ac]Ac-SibuDAB or [^225Ac]Ac-PSMA-617, respectively, applied at 5 kBq or 10 kBq (1 nmol per mouse; n = 6 per group; Table 1). The control group consisted of mice from several studies (n = 12 mice) and the data from this group were published previously.
After administration of the radioligands, the mice were monitored over 8 weeks using the same measures as previously published by Umbricht et al.. The relative body mass was defined as [BMx/BM0], where BMx is the body mass in grams at a given Day x and BM0 is the body mass in grams at Day 0. The tumor dimension was determined by measuring the longest tumor axis (L) and its perpendicular axis (W) with a digital caliper. The tumor volume (V) was calculated according to the equation [V = 0.5 × (LW^2)]. The relative tumor volume was defined as [TVx/TV0], where TVx is the tumor volume in mm^3 at a given Day x, and TV0 is the tumor volume in mm^3 at Day 0. Endpoint criteria that required euthanasia were defined as (i) body mass loss of >15%, (ii) a tumor volume of >800 mm^3, (iii) a combination of body mass loss of >10% and a tumor volume of >700 mm^3 or, (iv) signs of unease and pain or a combination thereof using a scoring system as previously reported. The median survival of mice of each group was assessed with Kaplan–Meier curves. Potential early side effects for mice that survived until study end were determined based on blood chemistry and organ-to-brain mass ratios on Day 56 by comparison to values obtained from an additional group of therapy-naïve mice (n = 4) without tumors but of the same age (Supplementary Material: Section S9).
Table S10. Biodistribution data and tumor-to-background ratios obtained in PC3-PIP/flu tumor-bearing mice 48 h after injection of [225Ac]Ac-SibuDAB, [177Lu]Lu-SibuDAB, [225Ac]Ac-PSMA-617 or [177Lu]Lu-PSMA-617. Decay-corrected data of accumulated activity are shown as [% IA/g]-values, representing the average ± SD.
Biodistribution data at 48 h p.i.
1 Data of [177Lu]Lu-PSMA-617 were previously published by Benešová et al., Mol Pharm 2018 [2]; Copyright 2018, American Chemical Society.
Purpose: In order to determine the therapeutic efficacy of [225Ac]Ac-SibuDAB in com-parison to [225Ac]Ac-PSMA-617 as well as the 177Lu-labeled counterparts, therapy studies were conducted in PC-3 PIP xenograft-bearing BALB/c nude mice.
Methods: The methods of the therapy study to assess the therapeutic efficacy of [225Ac]Ac-SibuDAB are reported in the main manuscript. An additional group of mice was treated with 10 MBq (1 nmol) [177Lu]Lu-SibuDAB under the same experimental condi-tions. Data previously acquired by our group for mice treated with 5 MBq [177Lu]Lu-SibuDAB were published by Borgna & Deberle et al. and data of mice treated with 5 MBq or 10 MBq [177Lu]Lu-PSMA-617 were previously published by Tschan et al. and Umbricht et al., respectively.
Results: The assessment of the PSMA-specific therapeutic effect of [225Ac]Ac-SibuDAB as well as the comparison to [225Ac]Ac-PSMA-617 are described in the main ar-ticle. The body mass of effectively treated mice, in which the tumor disappeared entirely […]
tumor-bearing mice that were treated with only vehicle as well as for some mice that were treated with 5 kBq or 10 kBq [225Ac]Ac-PSMA-617 and experienced a relapse in tumor

[3] = cited from earlier work
[4] = tested on: PC3-PIP/flu tumor-bearing mice; experiment: Biodistribution studies; type: in vivo, BALB/c nude mice; settings: 48 h p.i.
[5] = tested on: PC3-PIP/flu tumor-bearing mice; settings: ref Borgna & Deberle et al., Mol Pharm 2022, cited from earlier work
[6] = tested on: PSMA-positive PC-3 PIP tumor xenografts; parameters: method as in Borgna & Deberle et al., Mol Pharm 2022; settings: 5 MBq, ref Borgna & Deberle et al., Mol Pharm 2022; cited from earlier work

T1 sequence (Q04609 whole entry): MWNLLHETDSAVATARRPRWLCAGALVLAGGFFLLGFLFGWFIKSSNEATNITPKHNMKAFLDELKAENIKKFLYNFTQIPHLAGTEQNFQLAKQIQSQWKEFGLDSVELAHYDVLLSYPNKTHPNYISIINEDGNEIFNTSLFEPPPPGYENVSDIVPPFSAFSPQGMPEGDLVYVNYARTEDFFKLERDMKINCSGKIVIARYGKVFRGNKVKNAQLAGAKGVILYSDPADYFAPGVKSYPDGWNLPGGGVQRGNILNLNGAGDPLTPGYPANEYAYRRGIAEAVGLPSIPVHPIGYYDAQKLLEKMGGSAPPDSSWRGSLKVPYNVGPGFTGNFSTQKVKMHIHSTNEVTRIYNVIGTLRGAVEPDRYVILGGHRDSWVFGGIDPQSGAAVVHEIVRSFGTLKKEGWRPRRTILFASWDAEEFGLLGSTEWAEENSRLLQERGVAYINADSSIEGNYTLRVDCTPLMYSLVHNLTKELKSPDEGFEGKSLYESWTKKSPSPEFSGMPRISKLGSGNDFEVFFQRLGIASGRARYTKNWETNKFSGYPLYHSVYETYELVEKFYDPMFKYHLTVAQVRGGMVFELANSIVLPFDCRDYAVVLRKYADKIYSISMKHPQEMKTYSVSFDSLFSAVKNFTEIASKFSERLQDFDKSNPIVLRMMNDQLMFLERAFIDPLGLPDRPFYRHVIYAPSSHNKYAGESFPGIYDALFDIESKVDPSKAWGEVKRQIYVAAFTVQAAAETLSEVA

SMILES: CC(C)Cc1ccc(C(C)C(=O)NC(CCN)C(=O)NCCCCC(NC(=O)CN2CCN(CC(=O)[O-])CCN(CC(=O)[O-])CCN(CC(=O)[O-])CC2)C(=O)NCC2CCC(C(=O)NC(Cc3ccc4ccccc4c3)C(=O)NCCCCC(NC(=O)NC(CCC(=O)O)C(=O)O)C(=O)O)CC2)cc1.[177Lu+3] (stereo not shown) [[^177Lu]Lu-SibuDAB]
- Kd (PSMA): 27 nM
- Cell uptake [1]: 53 ± 1%
- Internalized fraction [1]: 15 ± 2%
- mice whose tumor xenografts disappeared completely without relapse until Day 56 [2]: five out of six
- start of tumor regrowth in the other mice [2]: ~ 7 weeks
- mice whose tumor xenografts disappeared completely without relapse until Day 56 ([2]; listed as [177Lu]Lu-SibuDAB): five out
- logD value [3]: −2.3 ± 0.1
- Blood, accumulated activity [4]: 0.27 ± 0.04 % IA/g
- Bone, accumulated activity [4]: ≤ 0.10 % IA/g
- Heart, accumulated activity [4]: 0.14 ± 0.02 % IA/g
- Intestines, accumulated activity [4]: 0.10 ± 0.03 % IA/g
- Kidneys, accumulated activity [4]: 3.5 ± 0.7 % IA/g
- Liver, accumulated activity [4]: 0.44 ± 0.06 % IA/g
- Lung, accumulated activity [4]: 0.33 ± 0.07 % IA/g
- Muscle, accumulated activity [4]: 0.07 ± 0.02 % IA/g
- PC-3 PIP tumor, accumulated activity [4]: 69 ± 12 % IA/g
- PC-3 flu tumor, accumulated activity [4]: 0.30 ± 0.07 % IA/g
- Salivary glands, accumulated activity [4]: 0.18 ± 0.05 % IA/g
- Spleen, accumulated activity [4]: 0.43 ± 0.10 % IA/g
- Stomach, accumulated activity [4]: 0.12 ± 0.06 % IA/g
- Tumor-to-blood ratio [4]: 252 ± 24
- Tumor-to-kidney ratio [4]: 20 ± 2
- Tumor-to-liver ratio [4]: 157 ± 14
- Blood, accumulated activity ([5]; 1 h p.i.): 17 ± 2 % IA/g
- Bone, accumulated activity ([5]; 1 h p.i.): 2.1 ± 0.3 % IA/g
- Heart, accumulated activity ([5]; 1 h p.i.): 5.3 ± 0.8 % IA/g
- Intestines, accumulated activity ([5]; 1 h p.i.): 1.8 ± 0.3 % IA/g
- Kidneys, accumulated activity ([5]; 1 h p.i.): 22 ± 5 % IA/g
- Liver, accumulated activity ([5]; 1 h p.i.): 3.5 ± 0.6 % IA/g
- Lung, accumulated activity ([5]; 1 h p.i.): 12 ± 2 % IA/g
- Muscle, accumulated activity ([5]; 1 h p.i.): 1.9 ± 0.3 % IA/g
- PC-3 PIP tumor, accumulated activity ([5]; 1 h p.i.): 38 ± 7 % IA/g
- PC-3 flu tumor, accumulated activity ([5]; 1 h p.i.): 2.7 ± 0.4 % IA/g
- Salivary glands, accumulated activity ([5]; 1 h p.i.): 3.5 ± 0.4 % IA/g
- Spleen, accumulated activity ([5]; 1 h p.i.): 3.0 ± 0.4 % IA/g
- Stomach, accumulated activity ([5]; 1 h p.i.): 1.5 ± 0.4 % IA/g
- Tumor-to-blood ratio ([5]; 1 h p.i.): 2.3 ± 0.5
- Tumor-to-kidney ratio ([5]; 1 h p.i.): 1.7 ± 0.3
- Tumor-to-liver ratio ([5]; 1 h p.i.): 11 ± 2
- Blood, accumulated activity ([5]; 4 h p.i.): 2.9 ± 1.9 % IA/g
- Bone, accumulated activity ([5]; 4 h p.i.): 0.49 ± 0.27 % IA/g
- Heart, accumulated activity ([5]; 4 h p.i.): 1.1 ± 0.7 % IA/g
- Intestines, accumulated activity ([5]; 4 h p.i.): 0.46 ± 0.23 % IA/g
- Kidneys, accumulated activity ([5]; 4 h p.i.): 12 ± 3 % IA/g
- Liver, accumulated activity ([5]; 4 h p.i.): 1.3 ± 0.5 % IA/g
- Lung, accumulated activity ([5]; 4 h p.i.): 3.1 ± 2.8 % IA/g
- Muscle, accumulated activity ([5]; 4 h p.i.): 0.39 ± 0.22 % IA/g
- PC-3 PIP tumor, accumulated activity ([5]; 4 h p.i.): 66 ± 11 % IA/g
- PC-3 flu tumor, accumulated activity ([5]; 4 h p.i.): 0.95 ± 0.71 % IA/g
- Salivary glands, accumulated activity ([5]; 4 h p.i.): 0.82 ± 0.43 % IA/g
- Spleen, accumulated activity ([5]; 4 h p.i.): 1.1 ± 0.6 % IA/g
- Stomach, accumulated activity ([5]; 4 h p.i.): 0.49 ± 0.29 % IA/g
- Tumor-to-blood ratio ([5]; 4 h p.i.): 49 ± 51
- Tumor-to-kidney ratio ([5]; 4 h p.i.): 5.5 ± 1.5
- Tumor-to-liver ratio ([5]; 4 h p.i.): 61 ± 29
- Blood, accumulated activity ([5]; 24 h p.i.): 0.26 ± 0.08 % IA/g
- Bone, accumulated activity ([5]; 24 h p.i.): 0.11 ± 0.04 % IA/g
- Heart, accumulated activity ([5]; 24 h p.i.): 0.15 ± 0.05 % IA/g
- Intestines, accumulated activity ([5]; 24 h p.i.): 0.13 ± 0.06 % IA/g
- Kidneys, accumulated activity ([5]; 24 h p.i.): 4.3 ± 1.0 % IA/g
- Liver, accumulated activity ([5]; 24 h p.i.): 0.54 ± 0.18 % IA/g
- Lung, accumulated activity ([5]; 24 h p.i.): 0.31 ± 0.10 % IA/g
- Muscle, accumulated activity ([5]; 24 h p.i.): ≤ 0.10 % IA/g
- PC-3 PIP tumor, accumulated activity ([5]; 24 h p.i.): 62 ± 18 % IA/g
- PC-3 flu tumor, accumulated activity ([5]; 24 h p.i.): 0.38 ± 0.09 % IA/g
- Salivary glands, accumulated activity ([5]; 24 h p.i.): 0.18 ± 0.05 % IA/g
- Spleen, accumulated activity ([5]; 24 h p.i.): 0.40 ± 0.13 % IA/g
- Stomach, accumulated activity ([5]; 24 h p.i.): 0.12 ± 0.06 % IA/g
- Tumor-to-blood ratio ([5]; 24 h p.i.): 247 ± 34
- Tumor-to-kidney ratio ([5]; 24 h p.i.): 14 ± 1
- Tumor-to-liver ratio ([5]; 24 h p.i.): 117 ± 14
- mice whose tumor xenografts disappeared completely without relapse until Day 56 [6]: two out of six
- start of tumor regrowth in the other mice [6]: ~ 4 weeks
